Our source for the EC50 values is patent publication US9637481B2 (RALEXAR THERAPEUTICS, INC., priority 2012, dated 2017).

Some results are limits rather than exact numbers.

In the test the target is T1, human LXRβ (AA 153-461) LBD (Homo sapiens, UniProt P55055).
T1 construct: pM human LXRβ (AA 153-461) LBD plasmid; expressed in transfected cells; host or cells: HEK 293
T1 sequence (P55055 153-460 limits assumed): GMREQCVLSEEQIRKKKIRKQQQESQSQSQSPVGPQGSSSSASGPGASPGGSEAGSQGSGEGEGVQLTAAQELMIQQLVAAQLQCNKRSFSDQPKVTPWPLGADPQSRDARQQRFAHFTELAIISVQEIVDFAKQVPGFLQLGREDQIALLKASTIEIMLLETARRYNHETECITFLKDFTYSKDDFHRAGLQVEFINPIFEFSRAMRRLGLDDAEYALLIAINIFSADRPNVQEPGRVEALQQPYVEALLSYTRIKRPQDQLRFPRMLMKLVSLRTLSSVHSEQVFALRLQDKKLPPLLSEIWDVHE
The test is described as follows: Gal4 LXRβ cotransfection assay (LXRβ Gal fusion assay). The conditions noted are these: HEK 293 cells, Gal4-responsive luciferase reporter, compounds 0.01-10 μM. The class given is cell-based. How it is done: For transient transfection of HEK 293 cells, 6×10^3 cells were plated into 96-well dishes. Each well was transfected with 25 ng 5×UAS-luciferase reporter (pG5luc) and 25 ng of pM human LXRβ (AA 153-461) LBD plasmid using Fugene 6 reagent (Roche; Indianapolis, Ind.). The chimeric protein was assessed for the ability to transactivate a Gal4-responsive luciferase reporter plasmid in a concentration-responsive manner to compounds (0.01-10 μM). Luciferase activity at each dose concentration was measured in triplicate using standard substrate reagents (BD Biosciences; San Diego, Calif.). Data are expressed as relative light units and are shown below in Table 1.
(In general: Reporter assays use an easily measured gene product as a stand-in for the process of interest.)
Take `COC(=O)c1cc(-c2nnc(-c3cccc(S(C)(=O)=O)c3)s2)n(-c2ccccc2Cl)n1` [Compound 9, methyl 1-(2-chlorophenyl)-5-(5-(3-(methylsulfonyl)phenyl)-1,3,4-thiadiazol-2-yl)-1H-pyrazole-3-carboxylate]: the EC50 (usually the concentration that produces a half-maximal response) lay within 1 to 10 µM.

On to `CS(=O)(=O)c1cccc(-c2nnc(-c3cc(C(=O)O)nn3-c3ccccc3Cl)s2)c1` [Compound 10, 1-(2-chlorophenyl)-5-(5-(3-(methylsulfonyl)phenyl)-1,3,4-thiadiazol-2-yl)-1H-pyrazole-3-carboxylic acid], for which the EC50 is over 10 µM.

For `COC(=O)c1cc(-c2nnc(-c3cccc(S(C)(=O)=O)c3)o2)n(-c2ccccc2Cl)n1` [Compound 11, methyl 1-(2-chlorophenyl)-5-(5-(3-(methylsulfonyl)phenyl)-1,3,4-oxadiazol-2-yl)-1H-pyrazole-3-carboxylate], the EC50 is under 1 µM.

`CS(=O)(=O)c1cccc(-c2nnc(-c3cc(C(=O)O)nn3-c3ccccc3Cl)o2)c1` [Compound 12, 1-(2-chlorophenyl)-5-(5-(3-(methylsulfonyl)phenyl)-1,3,4-oxadiazol-2-yl)-1H-pyrazole-3-carboxylic acid] came in with a 50% effective concentration (EC50) of over 10 µM.

`CCOC(=O)Cn1nc(C(F)(F)F)cc1-c1ccc(-c2cccc(S(C)(=O)=O)c2)s1` [Compound 16, ethyl 2-(5-(5-(3-(methylsulfonyl)phenyl)thiophen-2-yl)-3-(trifluoromethyl)-1H-pyrazol-1-yl)acetate] yielded an EC50 of under 1 µM.

In turn, `COC(=O)Cn1nc(C(F)(F)F)cc1-c1ccc(-c2cccc(S(C)(=O)=O)c2)s1` [Compound 18, methyl 2-(5-(5-(3-(methylsulfonyl)phenyl)thiophen-2-yl)-3-(trifluoromethyl)-1H-pyrazol-1-yl)acetic acid] came in with a half-maximal effective concentration (EC50) of over 10 µM.

`CCOC(=O)Cn1nc(C(F)(F)F)cc1-c1ccc(-c2cccc(S(C)(=O)=O)c2)cc1` [Compound 36, ethyl 2-(5-(3′-(methylsulfonyl)-[1,1′-biphenyl]-4-yl)-3-(trifluoromethyl)-1H-pyrazol-1-yl)acetate] yielded an EC50 of under 1 µM.

The molecule `CS(=O)(=O)c1cccc(-c2ccc(-c3cc(C(F)(F)F)nn3CC(=O)O)cc2)c1` [Compound 38, 2-(5-(3′-(methylsulfonyl)-[1,1′-biphenyl]-4-yl)-3-(trifluoromethyl)-1H-pyrazol-1-yl)acetic acid] displayed a 50% effective concentration (EC50) of over 10 µM.

`CSCOC(=O)Cn1nc(C(F)(F)F)cc1-c1ccc(-c2cccc(S(C)(=O)=O)c2)cc1` [Compound 41, methylthiomethyl 2-(5-(3′-(methylsulfonyl)biphenyl-4-yl)-3-(trifluoromethyl)-1H-pyrazol-1-yl)acetate] had an EC50 of 1 to 10 µM.

`CC(C)OC(=O)Cn1nc(C(F)(F)F)cc1-c1ccc(-c2cccc(S(C)(=O)=O)c2)s1` [Compound 49] showed an EC50 of under 1 µM.

`CCOC(=O)Cn1nc(C(F)(F)F)cc1-c1ccc(-c2ccc(CO)c(S(C)(=O)=O)c2)s1` [Compound 50, ethyl 2-(5-(5-(4-(hydroxymethyl)-3-(methylsulfonyl)phenyl)thiophen-2-yl)-3-(trifluoromethyl)-1H-pyrazol-1-yl)acetate] displayed a half-maximal effective concentration (EC50) of under 1 µM.

`CCOC(=O)Cn1nc(C(F)(F)F)cc1-c1ccc(-c2ccc(CO)c(S(C)(=O)=O)c2)cc1` [Compound 51, ethyl 2-(5-(4′-(hydroxymethyl)-3′-(methylsulfonyl)biphenyl-4-yl)-3-(trifluoromethyl)-1H-pyrazol-1-yl)acetate] showed a half-maximal effective concentration (EC50) of under 1 µM.

`CS(=O)(=O)c1cccc(-c2ccc(-c3cc(C(F)(F)F)nn3CC(=O)OCCl)s2)c1` [Compound 52, chloromethyl 2-(5-(5-(3-(methylsulfonyl)phenyl)thiophen-2-yl)-3-(trifluoromethyl)-1H-pyrazol-1-yl)acetate] returned an EC50 of under 1 µM.
